Common to all, as to settings: Homo sapiens
In experiment [1] the test system is HeLa. As to the kind of experiment: Cytotoxicity against HeLa cells. Type of experiment: functional.
Experiment [2] has as its system HeLa. As to the kind of experiment: Compound was evaluated for its inhibitory effect on the replication of Coxsackie virus B3 (Cox. B3) in HeLa cells. Type of experiment: functional, cell-based.
In experiment [3] the test system is HeLa. As to the kind of experiment: Compound was evaluated for its inhibitory effect on the replication of encephalomyocarditis virus (EMCV) in HeLa cells. It is filed as functional, cell-based.
The test system of experiment [4] is HeLa. As to the kind of experiment: Compound was evaluated for its inhibitory effect on the replication of vesicular stomatitis virus (VSV) in HeLa cells. It is filed as functional, cell-based.
For experiment [5], the system named is MT4. As to the kind of experiment: Compound was evaluated for its inhibitory effect on the replication of HIV-1(IIIB) in MT-4 cells. It is filed as functional, cell-based.
In experiment [6] the test system is MT4. As to the kind of experiment: Compound was evaluated for its inhibitory effect on the replication of HIV-2 (ROD) in MT-4 cells. Type of experiment: functional, cell-based.
Experiment [7] relates to MT4. As to the kind of experiment: Cytotoxicity against MT-4 cells. It is filed as functional.

This note sets out measurements from ChEMBL document CHEMBL1136289, “Synthesis and biological evaluation of thymine nucleosides fused with 3',4'-tetrahydrofuran ring” (Bioorg Med Chem Lett, 2003).

Usually CC50 stands for the concentration giving 50% cytotoxicity. A high value points to lower toxicity to the cells. As usually defined, the EC50 is the concentration needed to bring the measured effect to its halfway point. Low values mean greater potency, high ones weaker potency.

Molecules are shown by their SMILES. Converted amounts (≈) assume the structure as drawn. Bounds are passed on as bounds.

Regarding `Cc1cn(C2OC3(CO)COCC3C2O)c(=O)[nH]c1=O` (stereo unspecified), the half-maximal cytotoxic concentration (CC50) in the experiment with HeLa [1] was found to be 100 µg/mL (≈ 352 µM); in the experiment on MT4 [7] it was 0.54 µg/mL (≈ 1.9 µM). The EC50 in the experiment on HeLa [2] was 100 µg/mL (≈ 352 µM); in the experiment with HeLa [3], 100 µg/mL (≈ 352 µM); in the experiment with HeLa [4], 100 µg/mL (≈ 352 µM); in the experiment with MT4 [5], 95.8 µg/mL (≈ 337 µM); in the experiment on MT4 [6], over 0.54 µg/mL.
Regarding `NC(=O)c1ncn([C@@H]2O[C@H](CO)[C@@H](O)[C@H]2O)n1` [RIBAVIRIN], half-maximal cytotoxicity in the experiment with HeLa [1] (CC50) was put at 300 µg/mL (≈ 1230 µM). Moreover, the 50% effective concentration (EC50) with HeLa [2] is 181 µg/mL (≈ 743 µM); in the experiment with HeLa [3] it was 20.9 µg/mL (≈ 85.7 µM); in the experiment with HeLa [4], 14.4 µg/mL (≈ 59 µM).
In the case of `Cc1cn(C2CC3COCC3(CO)O2)c(=O)[nH]c1=O` (stereo unspecified), the CC50 was 4.11 µg/mL (≈ 15.3 µM) with HeLa [1] and under 0.8 µg/mL with MT4 [7]. Besides, the EC50 with HeLa [2] is over 4.11 µg/mL; with HeLa [3] it was over 4.11 µg/mL; with HeLa [4], 3.45 µg/mL (≈ 12.9 µM); in the experiment on MT4 [5], over 100 µg/mL; in the experiment on MT4 [6], over 100 µg/mL.
Consider `Cc1cn([C@H]2C[C@H](N=[N+]=[N-])[C@@H](CO)O2)c(=O)[nH]c1=O` [ZIDOVUDINE], for which the figures for the EC50 with MT4 [5] and in the experiment with MT4 [6] were 0.0012 µg/mL (≈ 0.00449 µM) and 0.01 µg/mL (≈ 0.0374 µM), respectively. This compound also registered a 50% cytotoxic concentration (CC50) in the experiment on MT4 [7] of 1.64 µg/mL (≈ 6.14 µM).
